# Measurements reported in patent US10179355B2, “Bioremediation enhancing agents and methods of use” (JRW BIOREMEDIATION, LLC, priority 2007, dated 2019).
# How the values were obtained:
# [1] = test system: dechlorinating bacteria known to convert PCE to ethene; experiment: Set B: Erythorbate ML with and without YM2, PCE dechlorination microcosms (kinetics, Relative Rate); format: cell-based, Dehalococcoides and Dehalobacter spp.
# Excerpt: Certain contaminated materials (or sites) may contain indigenous microbial communities that are sufficient for complete bioremediation of contaminants. For such sites, there is no need to add microbes unless the indigenous microbes are genetically deficient in achieving the desired clean-up goals. For those sites that are microbiologically limited, microorganisms may be added to the contaminated materials (or sites). In one embodiment, the inoculum may be a mixed culture of halo-respiring bacteria that have been enriched to reach an optimal cell density. These mixed cultures of halo-respiring bacteria may be typically obtained from sediment samples from rivers, streams or any waterways. More specifically, the inoculum used in the Examples was originated from a Sangamon River sediment sample (Lodge Park, Piatt County, Ill.) See, e.g., Brennan, R. A., Sanford, R. A. and Werth, C. J. (2006). “Biodegradation of Tetrachloroethene by Chitin Fermentation Products in a Continuous Flow Column System.” Journal of Environ. Engr., June 665-673. This culture had grown for several years on PCE, anaerobic basal salts medium, Wolfe's vitamin solution and various electron donors including lactate (1-2 millimolar (mM)), formate (4 mM) and chitin using the Volatile Interface Transfer Apparatus (VITA) reactor system at the University of Illinois. Brennan, R. A., and Sanford, R. A. (2002). “Continuous steady-state method using Tenax for delivering tetrachloroethene to chlororespiring bacteria.” Appl. Environ. Microbiol., 68(3), 1464-1467. […] Using 16S rRNA gene-specific primers, both Dehalococcoides and Dehalobacter spp. were detected. Quantitative real-time PCR has been used to determine that approximately 1.65×10^7 Dehalococcoides gene copies were present per ml of culture.
# For purpose of this disclosure, each bottle may be started with a certain amount of PCE. At subsequent times each bottle may be sampled for the degradation daughter products of PCE, namely trichloroethene (TCE), cis-dichloroethene (DCE), vinyl chloride (VC) and ethene, etc. Trans-DCE and 1,1-DCE are also daughter products of PCE, but they may not be detectable under the conditions disclosed here.
# The rate of degradation may be determined by calculating the number of pmoles of chloride ions removed from PCE and subsequently from the amounts of the daughter products generated. The calculation may be performed as follows: Chloride (μmoles)=[…]−4×PCE (μmoles)−3×TCE (pmoles)−2×DCE (μmoles)−VC (μmoles)
# Next, the dechlorination rate may be determined for each bottle at each time by dividing the Chloride generated by the time (days). The data may be then normalized to the lactate control by taking the ratio of Chloride Rate (pmoles/day) and the Lactate Control Chloride Rate (pmoles/day). This ratio is called Relative Rate and is dimensionless.
# As shown in the Examples, a paired t-test has been conducted to calculate the probability that the Relative Rate of one group (i.e. with Nutrient) is greater than the other group (i.e. without Nutrient). The null hypothesis is that the underlying means of the two paired groups are equal. The Probability that one group has higher Relative Rates than the other group is shown in various tables in the Examples.
# The following components were used in the system for bioremediating contaminated ground water microcosms in Examples 2-8: • 160 milliliter (ml) stoppered serum bottles • 100 ml of anaerobic culture medium, groundwater containing an excess of bioavailable phosphorus and nitrogen at 0.5 mM Phosphate and 1 mM ammonium degassed with a nitrogen sparge • Nominally 1 gram of limestone • 19.54 micromoles (pmoles) Perchloroethene (PCE) • An excess of various electron donors were utilized • 3 ml of inoculum containing dechlorinating bacteria known to convert PCE to ethene.
# The second set of microcosms used Erythorbate ML as the electron donor at 1020 mg/L initial concentration. […]
# [2] = test system: dechlorinating bacteria known to convert PCE to ethene; experiment: Set G: Efficiency by VFA Analysis; format: cell-based, Dehalococcoides and Dehalobacter spp.
# Excerpt: Sets B, C, D, E, and G further contain figures and tables showing results of the characterization of the Efficiency and the Relative Efficiency of electron donor usage. Efficiency may be defined as the percent of electron donor utilized for dechlorination, and may be calculated by dividing the pmoles of Chloride ion generated by the pmoles of electron donor consumed as measured by either Volatile Fatty Acid (VFA) analysis (Sets B, C, and G) or Chemical Oxygen Demand (COD) analysis (Set D and E). The Relative Efficiency of the electron donor utilization may be defined as the Efficiency of the Electron Donor divided by the Efficiency of the Lactate Control.
# The method used to calculate the consumption of the electron donor measured the propionate, acetate and formate levels to calculate the consumption of electron donor over time. The lactate and propionate fermented very rapidly resulting in acetate and formate as the only measurable VFAs.
# Set G contained microcosms that tested two different Yeast Metabolites (YM3 and YM4) and a Polysaccharide (PS1) for kinetics and efficiency of electron donor utilization using lactate and molasses as the electron donors. PS1 was also tested as an electron donor by itself.
# Lactate at 11.2 mM (1,000 mg/L) and nutrient amendment at 1% of the electron donor levels (˜10 mg/L). Triplicate bottles received 2 micro liters of PCE and 2 ml of inoculum. The bottles were sampled 5 times over a 138 day period.
smiles,measurement,setting,value
"CC(O)C(=O)[O-].[Na+] (stereo not shown) [Lactate Control, sodium lactate]",Cl^− Rate ± s.d.,[1]; 0 days,0.00 ± 0.00 µmol
same,Cl^− ± s.d.,[1]; 0 days,0.00 ± 0.00 µmol
same,DCE ± s.d.,[1]; 0 days,0.00 ± 0.00 µmol
same,Ethene ± s.d.,[1]; 0 days,0.00 ± 0.00 µmol
same,PCE ± s.d.,[1]; 0 days,19.54 ± 0.00 µmol
same,TCE ± s.d.,[1]; 0 days,0.00 ± 0.00 µmol
same,VC ± s.d.,[1]; 0 days,0.00 ± 0.00 µmol
same,Cl^− Rate ± s.d.,[1]; 21 days,1.61 ± 0.14 µmol
same,Cl^− ± s.d.,[1]; 21 days,33.88 ± 2.96 µmol
same,DCE ± s.d.,[1]; 21 days,0.83 ± 0.07 µmol
same,Ethene ± s.d.,[1]; 21 days,0.29 ± 0.08 µmol
same,PCE ± s.d.,[1]; 21 days,7.22 ± 0.85 µmol
same,TCE ± s.d.,[1]; 21 days,3.15 ± 0.11 µmol
same,VC ± s.d.,[1]; 21 days,4.28 ± 0.44 µmol
same,Cl^− Rate ± s.d.,[1]; 35 days,1.11 ± 0.12 µmol
same,Cl^− ± s.d.,[1]; 35 days,39.00 ± 4.35 µmol
same,DCE ± s.d.,[1]; 35 days,2.57 ± 0.34 µmol
same,Ethene ± s.d.,[1]; 35 days,0.53 ± 0.12 µmol
same,PCE ± s.d.,[1]; 35 days,3.58 ± 0.90 µmol
same,TCE ± s.d.,[1]; 35 days,3.77 ± 0.18 µmol
same,VC ± s.d.,[1]; 35 days,8.37 ± 0.37 µmol
same,Cl^− Rate ± s.d.,[1]; 49 days,1.05 ± 0.04 µmol
same,Cl^− ± s.d.,[1]; 49 days,51.67 ± 1.97 µmol
same,DCE ± s.d.,[1]; 49 days,1.31 ± 0.95 µmol
same,Ethene ± s.d.,[1]; 49 days,1.05 ± 0.22 µmol
same,PCE ± s.d.,[1]; 49 days,0.04 ± 0.01 µmol
same,TCE ± s.d.,[1]; 49 days,0.10 ± 0.03 µmol
same,VC ± s.d.,[1]; 49 days,23.41 ± 0.34 µmol
same,efficiency of electron donor utilization for dechlorination (in words),[2]; Set G,statistically more efficient an electron donor as compared to PS1 and molasses
same,Estimated % Efficiency,[2]; e^- used dechlorination / e^- used donor,5.392%
same,Relative Efficiency,[2]; relative to Lactate Control = 100%,100%
